The values that follow are results of earlier work, collected in patent EP0602619A1, “Controlled-release pharmaceutical compositions containing nicergoline” (INVERNI DELLA BEFFA FARMACEUTICI S.r.l., priority 1992, dated 1994).

`CO[C@]12C[C@@H](COC(=O)c3cncc(Br)c3)CN(C)[C@@H]1Cc1cn(C)c3cccc2c13` [Nicergoline, 8-β-1,6-dimethyl-[(5-bromonicotinoyloxy)methyl]-10α-methoxyergoline]: for the setting “humans, urine and feces”, the “period of excretion of the administered dose” value is 3 to 4 days. Also, for the setting “in vivo”, the half-life result is “very short”.
